Experimental data published in article PMC7699524, “Assessing the Intestinal Permeability and Anti-Inflammatory Potential of Sesquiterpene Lactones from Chicory” (Nutrients, 2020).
Marks after values point to notes of the source that are not given here.

Legend:
calcineurin-Crz1 pathway = test: β-Galactosidase CDRE-lacZ yeast reporter assay of Crz1 activation; assay type: cell-based, S. cerevisiae; settings: Saccharomyces cerevisiae, MnCl2 3 mM activation, strain YAA5; for inhibition at 12.5 µM: read-out: Calcineurin-Crz1 Inhibition (%) ± SD, 12.5 µM
Description: Cultures at OD600= 0.5 ± 0.05 were diluted to OD600= 0.1 ± 0.01, transferred to 96-well microplate and challenged with the highest nontoxic concentration previously determined for each compound to investigate their putative inhibitory effect towards the calcineurin-responsive zinc finger (Crz1) activation. Measurements of β-galactosidase activity driven by the calcineurin-dependent response element (CDRE) regulated lacZ reporter gene allowed the quantitative assessment of the capacity of each compound to inhibit the activation of Crz1. FK506 (Cayman Chemicals, Ann Arbor, MI, USA) was used as a positive control at a final concentration of 12.5 μM. After 90 min of incubation with the respective compounds at 30 °C under orbital shaking, MnCl2 (Merck, Saint Louis, MO, USA) was added at a final concentration of 3 mM. After 90 min of incubation under the same conditions, OD600 of cultures were recorded, 10 μL of cell suspensions were transferred to a new 96-well plate followed by addition of 20 μL Y-PER cell lysis reagent (ThermoFisher Scientific), and the plates were incubated for 20 min at 37 °C without agitation. 240 μL of LacZ buffer (8.5 g/L Na2HPO4 (ROTH), 5.5 g/L NaH2PO4.H2O (Merck), 0.75 g/L KCl (Panreac), 0.246 g/L MgSO4.7H2O (Merck) containing […] o-nitrophenyl β-D-galactopyranoside (ONPG) (Sigma–Aldrich®—Poole, Dorset, UK) was added to each well, and plates were incubated at 30 °C for 2 h. The OD420 and OD550 were monitored using a Biotek Power Wave XS Microplate Spectrophotometer (Biotek® Instruments, Winooski, VT, USA). The results were expressed as Miller units (MU), applying the following equation, where V = volume of culture assayed in mL; t = reaction time in minutes: Miller unit = 1000 × (OD420 − 1.75 × OD550)/(t × V × OD600)(1)

Caco-2 cells = test: Permeability across Caco-2 monolayer (apical concentration by LC-MS); settings: for % of Decrease in SL Concentration in the Apical Side (t = 4h) / SL conjugates with cysteine in the apical side after 4 h / Concentration of SL (Apical Side) t = 4 h / Concentration of SL (Apical Side) t = 0 h: Caco-2 monolayer; for % of Decrease in SL Concentration in the Apical Side (t = 4h): 10 µM apical, 4 h vs t = 0 h; for Concentration of SL (Apical Side) t = 4 h / Concentration of SL (Apical Side) t = 0 h: SL added at 10 µM apical; for Concentration of SL (Apical Side) t = 4 h: after 4 h; for Concentration of SL (Apical Side) t = 0 h: before experiment
Description: For intestinal permeability assessments of pure SLs, Caco-2 cells were seeded in 12 mm Transwell® inserts (polyester membrane, 0.4 μm pore size, Corning Costar Corp., NY, USA) at a density of 1.0 × 10^5 cell/cm^2. Cells were allowed to grow and differentiate to a confluent monolayer for 21 days postseeding with medium change three times per week. This mimics the apical and basolateral sides of the intestinal mucosa. Before the permeability assay, cells were washed with Hank’s balanced salt solution (HBSS) (Gibco, Life Technologies, Paisley, UK), and pure SLs in HBSS were added to the apical side for 4 h at the noncytotoxic concentration of 10 μM, while the basolateral well was replaced by HBSS. The fluorescent marker fluorescein (2.7 µM) was used as control, having been submitted to the same protocol as the SLs. Cells were submitted to an orbital shaking of 125 rpm (Ohaus, Shanghai, China), and samples from the basolateral side were collected after 15 min, 30 min, and then every hour until the end of the assay, and each time the retrieved volume was replaced by fresh HBSS to maintain sink conditions. After the 4 h assay, both apical and basolateral contents were collected, the cells were washed with PBS followed by culture medium, and culture medium was added to both compartments for 24 h to assess monolayer recovery. All samples were stored at −80 °C until LC-MS analysis.
Transepithelial electrical resistance (TEER) of all monolayers was monitored before and during experiments, and 24 h after the assay, to ensure their integrity using an EVOM™ voltmeter (WPI, Berlin, Germany). Before each experiment, TEER was measured and only monolayers with a TEER value higher than 500 Ω cm^2 were used. Experiments were done in triplicate.
Ultra High Performance Liquid Chromatography (UHPLC) separations were performed with a Dionex U3000 UHPLC coupled with a U3000 Photo Diode Array (PDA) and an LTQ-Orbitrap XL Mass Spectrometry (MS) system (Thermo-Fisher Ltd., Hemel Hempstead, UK). The MS and PDA systems were tuned and calibrated according to the manufacturers recommended procedures. The UHPLC was operated under Xcalibur and Chromeleon software (Thermo-Fisher Ltd. UK). A flow rate of 300 µL/min was applied, the column and guard (Synergi C18 Hydro-RP 80 Ä, 150 × 2.0 mm, 4 µm particle size; Phenomenex Ltd. U.K.) were maintained at a temperature of 30 °C. The solvent system compositions were, A: HPLC grade water (J.T. Baker, Scientific Chemical Supplies Ltd. UK), and solvent B: HPLC grade acetonitrile (J.T. Baker, Scientific Chemical Supplies Ltd. UK), both acidified with 0.1% MS grade formic acid (Ultima, Fisher Scientific, UK). A sample injection volume of 10 µL was employed in partial-loop mode. The gradient program was as follows: hold 2% B 0–2 min, 2–5% B 2–5 min, 5–45% B 5–25 min, 45–100% B 25–35 min, hold 100% B 35–38 min, 100–2% B 38–39 min, hold 2% B 39–44 min. Autosampler syringe and line washes were performed with 2:8 HPLC grade water: acetonitrile (J.T. Baker, Scientific Chemical Supplies Ltd., UK). The HPLC column eluent was first monitored by the U3000 PDA detector where spectra were collected in wavelength/absorbance mode from 200–600 nm. Additionally, three channel set points were employed, Channel A 210 nm, Channel B 260 nm, Channel C 320 nm. Spectra were collected with a filter bandwidth of 8 nm and wavelength step of 1 nm, the scan rate was 5 Hz.
The UHPLC eluent was next transferred to a Thermo LTQ-Orbitrap XL mass spectrometry system operated under Xcalibur (Thermo-Fisher Ltd. UK). For the first two minutes of analysis the UHPLC eluent was diverted to waste, from two to 39 min the eluent was directed to the MS detector, before being diverted back to waste between 39–44 min. Mass spectra were collected in centroid mode with a primary full scan event (m/z 100–1000) at a mass resolution of 30,000 (FWHM defined at m/z 400) within the Fourier Transform (FT) detector.

yeast cells = test: Yeast cell viability (Cell Titer Blue); assay type: cell-based, S. cerevisiae; settings: Cell Titer Blue assay
Description: Doses of SLs ranging from 12.5 μM to 100 μM for each compound were used in the yeast viability assays. Cultures obtained were diluted to a final OD600 = 0.025 ± 0.0025. The viability assays were performed in 96-wells microplates using 100 µL of diluted culture suspensions and 10 µL of Cell Titer Blue reagent (Promega, WI, USA) according to manufacturer’s instructions for 3 h at 30 °C. Fluorescence was measured in 30 min intervals at emission wavelength 580 nm using the Biotek Power Wave XS Microplate Spectrophotometer (Biotek® Instruments, Winooski, VT, USA).

[1] = Caco-2 apical side, conjugates estimated against calibration curves of parent SLs
[2] = LC-MS, apical side, t = 4 h, parent SLs added at 10 μM

Row | Structure (SMILES) | inhibition at 12.5 µM (calcineurin-Crz1 pathway) | % of Decrease in SL Concentration in the Apical Side (t = 4h) (Caco-2 cells) | SL conjugates with cysteine in the apical side after 4 h (Caco-2 cells; LC-MS) | Concentration of SL (Apical Side) t = 4 h (Caco-2 cells) | Concentration of SL (Apical Side) t = 0 h (Caco-2 cells) | Apical Concentration t = 4 h (µM Equivalents to Parent SL) (Caco-2 cells; [1]) | Peak Area (Average a.u.) (Caco-2 cells; [2]) | Apical Concentration t = 4 h (µM Equivalents to Parent SL) (Caco-2 cells; Caco-2) | other results
1 | CC1=C2C(=O)C=C(CO)C2C2OC(=O)C(C)C2C(OC(=O)Cc2ccc(O)cc2)C1 (stereo not drawn) [11β,13-dihydrolactucopicrin] | 26 ± 11% | 29.9 * % | not detected | 4.9 ± 0.9 µM | 7.0 ± 1.2 µM |  |  |  | 
2 | C=C1C(=O)O[C@@H]2[C@H]3C(CO)=CC(=O)C3=C(C)C[C@H](OC(=O)Cc3ccc(O)cc3)[C@@H]12 [Lactucopicrin, lactucopicrin] | 18 ± 9% | 100 ** % | detected | <LOQ | 12.4 ± 1.3 µM | <LOQ | 1.2 × 10^6 a.u. |  | Concentration of SL (Apical Side) t = 4 h (Caco-2 cells; listed as lactucopicrin): LOQ
3 | C=C1C(=O)O[C@H]2[C@H]1CC/C(C)=C/CC[C@@]1(C)O[C@@H]21 [Parthenolide, parthenolide, reference compound] | 20 ± 12% | 100 ** % | detected | <LOQ | 11.9 ± 2.0 µM | <LOQ |  |  | Peak Area (Average a.u.) (Caco-2 cells; human, Caco-2, 4 h, 10 µM): 9.2 × 10^5 a.u.
4 | C=C1C(=O)O[C@@H]2[C@H]3C(CO)=CC(=O)C3=C(C)C[C@H](O)[C@@H]12 [Lactucin, lactucin] | 20 ± 14% | 28.8 *** % | detected | 5.9 ± 0.5 µM | 8.3 ± 0.7 µM | 5.9 ± 0.5 µM Equivalents to Parent SL | 6.8 × 10^7 a.u. |  | % of Decrease in SL Concentration in the Apical Side (t = 4h) (Caco-2 cells; listed as lactucin): ≈ 30%
5 | C=CC[C@@H]1/C=C(\C)C[C@H](C)C[C@H](OC)[C@H]2O[C@@](O)(C(=O)C(=O)N3CCCC[C@H]3C(=O)O[C@H](/C(C)=C/[C@@H]3CC[C@@H](O)[C@H](OC)C3)[C@H](C)[C@@H](O)CC1=O)[C@H](C)C[C@@H]2OC [FK506, reference compound] | 67 ± 13% |  |  |  |  |  |  |  | 
6 | C/C1=C\[C@H]2OC(=O)C(CSC[C@H](N)C(=O)O)[C@@H]2CC/C(C)=C/CC1 (stereo partly drawn) [Costunolide-Cys] |  |  |  |  |  | 95 ± 8.4 µM Equivalents to Parent SL | 3.1 × 10^8 a.u. |  | 
7 | C=C1C(=O)O[C@@H]2/C=C(\C)CC/C=C(\C)CC[C@@H]12 [Costunolide] |  | 100 ** % | detected | <LOD | 13.1 ± 1.8 µM | <LOD |  |  | inhibition at 6.25 µM (calcineurin-Crz1 pathway; read-out: Calcineurin-Crz1 Inhibition (%) ± SD, 6.25 µM): 18 ± 9%; Highest nontoxic concentration in yeast (yeast cells): 6.25 µM; Concentration of SL (Apical Side) t = 4 h (Caco-2 cells; listed as costunolide): LOQ
8 | CC1=CCCC2(C)OC2C2OC(=O)C(CSCC(N)C(=O)O)C2CC1 (stereo not drawn) [Parthenolide-Cys] |  |  |  |  |  |  |  | 27 ± 5.9 µM Equivalents to Parent SL | 
9 | CC1=C2C(=O)C=C(CO)C2C2OC(=O)C(CSCC(N)C(=O)O)C2C(OC(=O)Cc2ccc(O)cc2)C1 (stereo not drawn) [Lactucopicrin-Cys] |  |  |  |  |  |  |  | 17.8 ± 2.9 µM Equivalents to Parent SL | 
10 | CC1=C2C(=O)C=C(CO)C2C2OC(=O)C(CSCC(N)C(=O)O)C2C(O)C1 (stereo not drawn) [Lactucin-Cys] |  |  |  |  |  |  |  | 2.9 ± 3.6 µM Equivalents to Parent SL | 
